Data set [1] in a line: Rheology of solutions/gels of the octapeptides (oscillatory, cone/plane rheometer). As to conditions: 25° C. Format: physicochemical. How it is done: The viscous and viscoelastic properties of the solutions/gels of the compounds according to the invention can be studied by rheology according to the operating methods described hereafter.
The measurements are in general carried out using a rheometer of “Control Stress Haake 600” type (Haake, Germany) equipped with a cone/plane measurement geometry, with a cone 20 mm in diameter, an angle of 1 degree and an air gap of 52 microns. The measurement temperature is fixed at 25° C. +/−0.2° C. using a thermostatically-controlled bath but can be adjusted if necessary.
Two complementary types of tests are carried out, on the one hand measurements in static mode and on the other hand measurements in dynamic mode (oscillatory rheology); both are briefly described hereafter. […]
For the dynamic measurements, a shear strain (γ0) […] of sinusoidal type, of known amplitude and frequency is applied to the sample. The resultant sinusoidal shear stress is measured (amplitude τ0). […] In this case, the sine curves recorded for the shear strain and the shear stress having a phase angle difference δ. The values of τ0, γ0 and δ make it possible to access the viscoelastic parameters:
The storage modulus (also called elastic modulus) is a measurement of the elastic energy stored (or restored) per unit volume, whilst the loss modulus is a measurement of the energy dissipated per unit volume. These moduli must be calculated in the linear viscoelastic region (i.e. experimental conditions for which these moduli are independent of the amplitude of the shear stress (strain)). These experimental conditions are in general determined by a so-called “stress sweep” experiment which consists of a measurement of the elastic modulus and the loss modulus as a function of the amplitude of the deformation imposed (for a given frequency, typically 1Hz). In general, in the case of small deformations, G′ and G″ vary very little with the deformation. Then, on passing the yield point, a strong reduction in G′ and a maximum of G″ is observed. This transition delimits the linear viscoelasticity region. When the linear viscoelasticity region is known, other tests can be carried out such as “frequency sweep” measurements consisting of measuring the dependence of G′ and G″ as a function of shear frequency at a fixed deformation amplitude, comprised in the linear viscoelasticity region.
The critical deformation is the deformation from which the elastic modulus dependent on the deformation applied at a constant frequency. For higher deformations, the material looses its viscoelastic properties and tends to become more viscous than elastic. […]

Data set [2] in a line: Self-assembly study: putting peptides in solution in water, macroscopic, ATR-FTIR, TEM and SAXS analysis. Format: physicochemical. As to conditions: 3 to 15% by mass of peptide in water; form and diameter of the self-assembled structure, or soluble / insoluble. The source says: The procedure used comprises three stages: putting the peptides in solution and macroscopic analysis; spectroscopic and microscopic analyses of the structures formed and by small-angle X-ray scattering (SAXS) analyses.
The first stage of the characterization of the derivatives is the production of a range of concentrations from 3 to 15% by mass of peptide in water. Gelling of the solution indicates the presence of self-assembled structures which can be nanotubes but can also be fibres or other self-organised structures.
The object of this stage is to verify the presence of self-assembled structures, to characterize their self-assembly and to visualize them by microscopy.
Infrared spectroscopy makes it possible to obtain information on the method of stacking the peptides in the self-assemblies. The amide band spectrum, reflecting the absorption spectra of the carbonyl functions of the peptide backbone, gives information on the type of hydrogen bond in which these groups are involved (H bonds leading to the formation of the […], a helix or also a loop or random conformation) and consequently on the secondary and tertiary structure of the peptides in solution and self-assembled. The attenuated total reflection technique (ATR-FTIR) uses a crystal on which the solid or liquid sample is deposited. The infrared light is guided through this crystal at an angle which allows it to be reflected several times inside the crystal, which increases the sensitivity of the technique. Due to the performance of this device, it is then possible perform measurements on relatively dilute solutions. The beam penetrates a few microns into the sample deposited on the crystal, which means that only the molecules/structures which are deposited on the surface of the crystal are analyzed. Moreover, this technique is non-destructive.
The assembled structures are then visualized by transmission electron microscopy (TEM). This very powerful technique, allowing magnifications greater than 500,000 times, is one of the few techniques capable of visualizing structures on the nanometric scale. The sample is subjected to an electron beam. The visualization of the transmitted beam is produced either by a photoluminescent screen, or by a CCD camera. The sample in the microscope being under vacuum, it is samples dried after staining with uranyl salts in order to increase contrast which are observed.
The peptide in solution is firstly deposited on a copper grid covered with a film of carbon. After deposition of the materiel, the excess liquid is eliminated. In the same way, the solution of colorant, in our case uranyl acetate, is deposited on the grid, the excess is eliminated and the grid is dried in the open air. It can then be introduced into the microscope.
The samples, liquids or gels, are introduced into a capillary column and subjected to a monochromatic flow of X-rays. The intensity diffused is measured as a function of the scattering angle with respect to the incident angle.
The diffusion patterns thus obtained must be the subject of a correlation with a close theoretical model of the structures present in the sample. In the case where the peptides have self-assembled in the form of hollow nanotubes, the modelling of the experimental data with the theoretical diffusion produced by infinitely long hollow columns makes it possible to determine with precision the diameter of the columns and to estimate their wall thickness (Valery et al. in Biophysical journal, 2004, 86(4), 2484-2501 and Proc. Natl. Acad. Sci., 2003, 100(18) 10258-10262). For polydisperse, nanotubular, fibrilar, micellar or lamellar self-assemblies, it is the correlation of the spectroscopic, microscopic and XR scattering data which makes it possible to estimate a size range for the objects observed.

Structures are written as SMILES. Values joined by “and” are separate entries in the source; they are usually repeats but may differ in a detail not shown here. Equal values may be shown once. Bridge positions count the residues as written; N and C are the ends. Square brackets hold non-standard residues; d marks the D form. Peptide text beside a SMILES is read from it. ξ: configuration not given here. d2Nal = N[C@H](Cc1ccc2ccccc2c1)C(=O)O; Thr(3ξ) = CC(O)[C@H](N)C(=O)O

Consider `CC(C)[C@@H]1NC(=O)[C@H](CCCCN)NC(=O)[C@@H](C)NC(=O)[C@H](Cc2ccc(O)cc2)NC(=O)[C@@H](NC(=O)[C@H](N)Cc2ccc3ccccc3c2)CSSC[C@@H](C(=O)N[C@H](C(N)=O)C(C)O)NC1=O` (stereo partly drawn) [Example 4, H-D-2-Nal^1-cyclo(Cys^2Tyr^3-D-Ala^4-Lys^5-Val^6Cys^7)-Thr^8-NH2.2 CH3COOH] (H-[d2Nal]CY[dA]KVC[Thr(3ξ)]-NH2; disulfide 2-7), for which, in data set [1] (75 mM), the Critical deformation rheology was 800 Pa and the Storage modulus rheology is 184,000 Pa. In addition, in data set [1] (226 mM), the Critical deformation rheology was 18,600 Pa and the Storage modulus rheology is on record as >2,700,000 Pa. Further, the Assembly entry in data set [2] was “self-assembled fibres”.
For `CC(C)[C@@H]1NC(=O)[C@H](CCCCN)NC(=O)[C@@H](Cc2cccc3ccccc23)NC(=O)[C@H](Cc2ccc(O)cc2)NC(=O)[C@@H](NC(=O)[C@H](N)Cc2ccc3ccccc3c2)CSSC[C@@H](C(=O)N[C@H](C(N)=O)C(C)O)NC1=O` (stereo partly drawn) [Example 6, H-D-2-Nal^1-cyclo(Cys^2Tyr^3-13-(1-naphthyl)-D-Ala^4-Lys^5-Val^6-Cys^7)-Thr^8-NH2.2 CH3COOH], in data set [1] (75 mM), the Critical deformation rheology amounted to 5000 Pa and the Storage modulus rheology is on record as 643,500 Pa. Further, in data set [1] (226 mM), the Critical deformation rheology worked out at 8500 Pa and the Storage modulus rheology was >2,700,000 Pa. In addition, the Assembly entry in data set [2] was “monodisperse peptide nanotubes and 35 nm monodisperse nanotube”.
`CC(C)[C@@H]1NC(=O)[C@H](CCCCN)NC(=O)[C@@H](Cc2c[nH]cn2)NC(=O)[C@H](Cc2ccc(O)cc2)NC(=O)[C@@H](NC(=O)[C@H](N)Cc2ccc3ccccc3c2)CSSC[C@@H](C(=O)N[C@H](C(N)=O)C(C)O)NC1=O` (stereo partly drawn) [Example 3, H-D-2-Nal^1-cyclo(Cys^2-Tyr^3-D-His^4-Lys^5-Val^6-Cys^7)-Thr^8-NH2.2 CH3COOH] (H-[d2Nal]CY[dH]KVC[Thr(3ξ)]-NH2; disulfide 2-7): in data set [1] (75 mM), the Critical deformation rheology result is given as “Viscosity” and the Storage modulus rheology entry is “Viscosity”. Besides, in data set [1] (226 mM), the Critical deformation rheology turned out to be 360 Pa and the Storage modulus rheology was 150,000 Pa. The Assembly entry in data set [2] was “monodisperse peptide nanotubes and 9.3 nm monodisperse nanotube”.
